Converted amounts (≈) assume the structure as drawn. Marks after values point to notes of the source that are not given here.
What was measured:
[1] = test system: H. pylori clinical isolates KA1-KA7 and ATCC 43504; assay: Anti-Helicobacter pylori activity, disk diffusion method; assay type: cell-based; conditions: for susceptibility by disc diffusion (in words): all the isolates of H. pylori
Protocol: Clinical isolates were symbolized from KA1 to KA7. Isolates were grown in Brucella agar plates (Difco, Detroit, Mich., USA) containing 10% v/v sheep serum at 37° C. Identification was carried out using Gram stain and catalase, oxidase and urea hydrolysis activities. Helicobacter pylori ATCC 43504 was used as control. Determination of the amino acid-sulfanilamide hybrid activity against H. pylori was carried out using disk diffusion method (McNulty C, Owen R., Tompkins […]., Price A., Smith G. and […]. (2002). Helicobacter pylori susceptibility testing by disc diffusion. Journal of Antimicrobial Chemotherapy, 49: 601-609). The amino acid-sulfanilamide hybrid compound was dissolved in 2% Tween (v/v), in order to obtain final concentration of 2 mg/ml.

[2] = test system: absolute alcohol-induced ulcer in rats; assay: Antiulcerogenic activity, absolute ethanol-induced ulcer model; assay type: in vivo, male Wistar rats
Protocol: Evaluation of the anti-ulcerogenic activity was carried out using absolute ethanol-induced ulcer model (Bighettia A. E., Antonio M. A., Kohna L. K., Rehdera V. L. G., Foglioa M. A., Possentia A., Vilelaa L., Carvalho J. E. (2005). Antiulcerogenic activity of a crude hydroalcoholic extract and coumarin isolated from Mikania laevigata Schultz Bip. Phytomedicine, 12, 72-77). Thirty male Wistar rats were divided into 5 groups each of 6 rats. Group 1 received the vehicle and served as control, group 2 received ranitidine (100 mg/kg) and served as standard, groups 3, 4 and 5 received the synthesized compound at doses 25, 50 and 100 mg/kg respectively.
Rats of all groups were fasted for 24 h then all medications were administered orally. One hour after treatment, the animals received an oral dose of absolute ethanol (1 ml/200 g) and then sacrificed one hour later, by ether inhalation, the stomachs were rapidly removed, opened along their greater curvature and gently rinsed under running tap water.
Number of lesions in the glandular part of the stomach were measured under an illuminated magnifying microscope (10×). Long lesions were counted and their lengths were measured. Petechial lesions were counted, and then each five petechial lesions were taken as 1 mm of ulcer.
The lesion scores: The mucosal lesions were quantified by the scoring system (0-5) 0=no damage, 1=Local edema and inflammation without ulcers; 2=One ulcer without inflammation; 3=one to two ulcers with inflammation & lesion diameter <1 cm; 4=More than two ulcers with lesion diameter 1-2 cm; 5=Sever ulceration with lesion diameter >2 cm (Morris et al., 1989).
Ulcer index: To calculate the ulcer index (mm), the sum of the total length of long ulcers and petechial lesions in each group of rats was divided by its number. The curative ratio was determined according to the formula: % Protection of control ulcer=Control UI−Test UI/Control UI×100

[3] = test system: H. pylori clinical isolates KA1-KA7 and ATCC 43504; assay: Minimum inhibitory concentration (MIC), broth microdilution assay; assay type: cell-based; conditions: Helicobacter pylori
Protocol: A total of seven clinical isolates of H. pylori were isolated from 19 biopsies received from patients diagnosed with gastritis or peptic ulcer disease at Al-Kasr Al-Ainy hospital, Cairo, Egypt. Clinical isolates were symbolized from KA1 to KA7. Isolates were grown in Brucella agar plates (Difco, Detroit, Mich., USA) containing 10% v/v sheep serum at 37° C.
Identification was carried out using Gram stain and catalase, oxidase and urea hydrolysis activities. Helicobacter pylori ATCC 43504 was used as control.
The Minimum inhibitory concentration (MIC) was carried out by the broth microdilution assay (EUCAST, 2003). A total of 100 μL of BHI broth supplemented with 10% defibrinated sheep blood inoculated with 6×10^8 H. pylori (McFarland turbidity standard 2) and 100 μL A of serial dilutions of amino acid-sulfanilamide hybrid compound dissolved in 2% Tween (v/v) was added to each well in the microplate, to reach final concentrations of 12.5; 25; 50; 100; 200; 400 and 800 μg/ml. The microplate was incubated at 37° C. under microaerophilic conditions in an atmosphere of 5-15% O2 and 5-10% CO2, for 48-72 h. After incubation, the plates were visually examined, the optical density was determined at 450 nm and each well was replicated in blood agar (Mueller-Hinton agar with 5% sheep blood), to determine the MIC.

[4] = test system: liver and kidney functions of rats; assay: Effect on liver and kidney functions; assay type: in vivo, Male Wister rats; conditions: 100 mg/kg orally for 15 days
Protocol: Male Wister rats were divided into 2 equal groups each of 10 rats. The 1st group was left as a control and administrated the vehicle orally, while the 2nd group was orally administrated the synthesized compound in a dose of 100 mg/kg for 15 days. After the examination period, 6 hr after the last dose blood samples were collected from the orbital plexus of rats. Samples were left to clot at room temperature for 30 min then centrifuged at 1000 rpm for 20 min. The collected sera were used for determination of the activity of both (AST) aspirate aminotransferase and (ALT) alanine aminotransferase as liver markers. In addition, levels of blood urea, serum creatinine were also estimated as kidney markers ([…]., Al-Jaber N. A., Moses […]. and Zain M. E. (2013). Antiulcerogenic Activities of the Extracts and Isolated Flavonoids of Euphorbia cuneata Vahl. Phytother. Res. 27: 126-130).

[5] = rat serum, 6 hr after last dose, mean ± SD, n=10

CC[C@H]1OC(=O)[C@H](C)[C@@H](O[C@H]2C[C@@](C)(OC)[C@@H](O)[C@H](C)O2)[C@H](C)[C@@H](O[C@@H]2O[C@H](C)C[C@H](N(C)C)[C@H]2O)[C@](C)(O)C[C@@H](C)C(=O)[C@H](C)[C@@H](O)[C@]1(C)O [Erythromycin, erythromycin]
Inhibition zone ([1]; H. pylori ATCC 43504, disk (15 μg)): 29 mm | Inhibition zone ([1]; H. pylori KA1, disk (15 μg)): 21 mm | Inhibition zone ([1]; H. pylori KA2, disk (15 μg)): 22 mm | Inhibition zone ([1]; H. pylori KA3, disk (15 μg)): 24 mm | Inhibition zone ([1]; H. pylori KA4, disk (15 μg)): 23 mm | Inhibition zone ([1]; H. pylori KA5, disk (15 μg)): 21 mm | Inhibition zone ([1]; H. pylori KA6, disk (15 μg)): 25 mm | Inhibition zone ([1]; H. pylori KA7, disk (15 μg)): 24 mm | susceptibility by disc diffusion (in words) [1]: sensitive

CC1(C)S[C@@H]2[C@H](NC(=O)[C@H](N)c3ccc(O)cc3)C(=O)N2[C@H]1C(=O)O [Amoxicillin, amoxicillin]
Inhibition zone ([1]; H. pylori ATCC 43504, disk (30 μg)): 33 mm | Inhibition zone ([1]; H. pylori KA1, disk (30 μg)): 22 mm | Inhibition zone ([1]; H. pylori KA2, disk (30 μg)): 23 mm | Inhibition zone ([1]; H. pylori KA3, disk (30 μg)): 24 mm | Inhibition zone ([1]; H. pylori KA4, disk (30 μg)): 23 mm | Inhibition zone ([1]; H. pylori KA5, disk (30 μg)): 25 mm | Inhibition zone ([1]; H. pylori KA6, disk (30 μg)): 26 mm | Inhibition zone ([1]; H. pylori KA7, disk (30 μg)): 27 mm | susceptibility by disc diffusion (in words) [1]: sensitive

CC(C)CC(NCC(=O)Nc1ccc(S(N)(=O)=O)cc1)C(=O)O (stereo not shown) [Compound 5, 4-Methyl-2-[2-oxo-2-(4-sulfamoylphenylamino)ethylamino]pentanoic acid]
% protection (of control ulcer) ([2]; oral 25 mg/kg): 16.7% | score (lesion score 0-5) ([2]; oral 25 mg/kg): 2.2 | no of ulcers ([2]; oral 25 mg/kg, mean, n=6): 11.1* | % protection (of control ulcer) ([2]; oral 50 mg/kg): 59% | score (lesion score 0-5) ([2]; oral 50 mg/kg): 1.6 | no of ulcers ([2]; oral 50 mg/kg, mean, n=6): 8** | % protection (of control ulcer) ([2]; oral 100 mg/kg): 66.7% | score (lesion score 0-5) ([2]; oral 100 mg/kg): 1.4 | no of ulcers ([2]; oral 100 mg/kg, mean, n=6): 6.2*** | anti-ulcerogenic activity (in words) ([2]; oral 25-100 mg/kg): potent dose dependent anti-ulcerogenic activity | MIC ([3]; ATCC43504, H. pylori ATCC 43504): 50 µg/mL (≈ 146 µM) | MIC ([3]; ATCC43504, H. pylori KA1): 50 µg/mL (≈ 146 µM) | MIC ([3]; ATCC43504, H. pylori KA2): 50 µg/mL (≈ 146 µM) | MIC ([3]; ATCC43504, H. pylori KA3): 50 µg/mL (≈ 146 µM) | MIC ([3]; ATCC43504, H. pylori KA4): 50 µg/mL (≈ 146 µM) | MIC ([3]; ATCC43504, H. pylori KA5): 50 µg/mL (≈ 146 µM) | MIC ([3]; ATCC43504, H. pylori KA6): 25 µg/mL (≈ 72.8 µM) | MIC ([3]; ATCC43504, H. pylori KA7): 12.5 µg/mL (≈ 36.4 µM) | Inhibition zone ([1]; H. pylori ATCC 43504, disk (2 mg)): 16 mm | Inhibition zone ([1]; H. pylori KA1, disk (2 mg)): 18 mm | Inhibition zone ([1]; H. pylori KA2, disk (2 mg)): 15 mm | Inhibition zone ([1]; H. pylori KA3, disk (2 mg)): 16 mm | Inhibition zone ([1]; H. pylori KA4, disk (2 mg)): 15 mm | Inhibition zone ([1]; H. pylori KA5, disk (2 mg)): 15 mm | Inhibition zone ([1]; H. pylori KA6, disk (2 mg)): 17 mm | Inhibition zone ([1]; H. pylori KA7, disk (2 mg)): 19 mm | susceptibility by disc diffusion (in words) [1]: sensitive | ALT [4, 5]: 38.67 ± 0.22 U/l | AST [4, 5]: 63.23 ± 0.39 U/l | Creatinine [4, 5]: 0.85 ± 0.02 mg/dL | hepatotoxic manifestation ([4]; rats): didn't reveal hepatotoxic manifestation | nephrotoxic manifestations ([4]; rats): no apparent nephrotoxic manifestations | Blood Urea ([4]; rats, 6 hr after last dose, mean ± SD, n=10): 65.50 ± 1.9 mg/dL

CNC(=C[N+](=O)[O-])NCCSCc1ccc(CN(C)C)o1 [Ranitidine, ranitidine, reference compound]
% protection (of control ulcer) ([2]; oral 100 mg/kg): 45.05% | score (lesion score 0-5) ([2]; oral 100 mg/kg): 2.2 | no of ulcers ([2]; oral 100 mg/kg, mean, n=6): 6.9*** | ulcer index ([2]; oral 100 mg/kg, mean, n=6): 6.0* mm
